Data from ChEMBL document CHEMBL1143569, “Predicting human serum albumin affinity of interleukin-8 (CXCL8) inhibitors by 3D-QSPR approach” (J Med Chem, 2005).

Target: albumin (Homo sapiens, UniProt P02768)
Experiment: Percentage plasma protein binding towards human serum albumin
Type: cell-free
Details: read-out: PB (converted)

albumin, sequence (P02768 whole entry): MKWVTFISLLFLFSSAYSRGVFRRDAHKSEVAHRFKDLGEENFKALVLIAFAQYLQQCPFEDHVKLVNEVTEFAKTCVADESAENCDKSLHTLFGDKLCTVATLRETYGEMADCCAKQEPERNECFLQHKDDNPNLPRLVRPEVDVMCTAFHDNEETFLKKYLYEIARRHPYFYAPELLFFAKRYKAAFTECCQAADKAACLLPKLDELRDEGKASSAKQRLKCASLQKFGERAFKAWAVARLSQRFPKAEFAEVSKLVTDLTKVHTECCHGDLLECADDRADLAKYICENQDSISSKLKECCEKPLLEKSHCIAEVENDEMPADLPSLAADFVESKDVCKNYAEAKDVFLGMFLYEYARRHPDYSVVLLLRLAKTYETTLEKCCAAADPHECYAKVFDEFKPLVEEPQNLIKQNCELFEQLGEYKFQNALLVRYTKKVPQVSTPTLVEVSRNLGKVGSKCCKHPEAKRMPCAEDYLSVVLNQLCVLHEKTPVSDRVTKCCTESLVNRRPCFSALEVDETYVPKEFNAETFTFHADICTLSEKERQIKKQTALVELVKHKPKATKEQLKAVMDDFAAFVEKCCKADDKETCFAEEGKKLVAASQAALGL

Structure (SMILES) | fraction unbound
O=C(c1ccccc1)c1ccc2n1CCC2C(=O)O (stereo unspecified) [KETOROLAC] | 0.008
C[C@@H](C(=O)NCCN1CCCC1)c1ccc(OS(=O)(=O)C(F)(F)F)cc1 | 0.3
CC1=C(CC(=O)O)c2cc(F)ccc2/C1=C\c1ccc([S+](C)[O-])cc1 (stereo unspecified) | 0.06
NS(=O)(=O)c1cc2c(cc1Cl)NCNS2(=O)=O [HYDROCHLOROTHIAZIDE] | 0.42
CCCNC(=O)NS(=O)(=O)c1ccc(Cl)cc1 [CHLORPROPAMIDE] | 0.04
Cc1ccc(C(=O)c2ccc(CC(=O)O)n2C)cc1 [TOLMETIN] | 0.004
Cc1ccc(S(=O)(=O)NC(=O)NN2CCCCCC2)cc1 [TOLAZAMIDE] | 0.03
C[C@@H](C(=O)NS(C)(=O)=O)c1ccc(OS(=O)(=O)C(F)(F)F)cc1 [LADARIXIN] | 0.002
CS(=O)(=O)Nc1ccc([N+](=O)[O-])cc1Oc1ccccc1 [NIMESULIDE] | 0.1
CC(C)Cc1ccc([C@@H](C)C(=O)N[C@H](C)C(=O)O)cc1 | 0.04
CC(C)Cc1ccc([C@@H](C)C(=O)NCCOCCO)cc1 | 0.169
CC(Cc1ccc([C@@H](C)C(=O)NS(C)(=O)=O)cc1)C(=O)O (stereo partly specified) | 0.298
Cc1cc(CC(=O)O)n(C)c1C(=O)c1ccc(Cl)cc1 [ZOMEPIRAC] | 0.015
CC(C)NCC(O)c1ccc(NS(C)(=O)=O)cc1 (stereo unspecified) [SOTALOL] | 0.825
C[C@@H](C(N)=O)c1ccc(OS(=O)(=O)C(F)(F)F)cc1 | 0.08
CC(C(=O)O)c1ccc(-c2ccccc2)c(F)c1 (stereo unspecified) [FLURBIPROFEN] | 0.005
CC(C)Cc1ccc([C@@H](C)C(=O)NCCCN(C)C)cc1 | 0.249
CC(C)Cc1ccc([C@@H](C)C(=O)NS(C)(=O)=O)cc1 [REPARIXIN] | 0.001
C[C@@H](C(=O)NCCCN1CCCC1)c1ccc(OS(=O)(=O)C(F)(F)F)cc1 | 0.38
COc1ccc2c(c1)CN(c1ccc(C(C)C(=O)O)cc1)C2=O (stereo unspecified) | 0.02
CC(C)Cc1ccc([C@@H](C)C(=O)NCCCN2CCCCC2)cc1 | 0.149
